{"source": "patent US4652554A", "about": "“Nitro-substituted 1-β-D-arabinofuranosylcytosines” (St. Jude Children's Research Hospital, priority 1982, dated 1987)", "key": {"CCFR-CEM/ara-C (mutant)": {"system": "CCFR-CEM/ara-C (mutant)", "experiment": "Cytotoxicity (cell growth inhibition), ara-C resistant mutant", "format": "cell-based", "details": "Homo sapiens, read-out: IC50 (molar conc. for 50% inhib. of cell growth)"}, "CCRF-CEM cells": {"system": "CCRF-CEM cells", "experiment": "Effect of cytidine deaminase on cytotoxicity for CCRF-CEM cells", "details": "Homo sapiens, CCRF-CEM"}, "[1]": {"experiment": "Effect of cytidine deaminase on cytotoxicity for CCRF-CEM cells", "details": "cytidine deaminase"}, "murine leukemia L1210": {"system": "murine leukemia L1210", "experiment": "In vivo L1210 leukemia cell number in peritoneal cavity 24 h after single i.p. dose", "design": "species or system murine (B6D2F1/J female mice)", "details": "720 mg/kg i.p., 24 hours after treatment (day 6)", "experimental": "1-(2-O-Nitro-β-D-arabinofuranosyl)cytosine (nitrara-C) is a powerful anti-neoplastic agent particularly against the leukemias.\nB6D2F1 /J female mice weighing ~20 g. were inoculated intraperitoneally with 1×10^5 cells of the murine leukemia, L1210. Five days later, the leukemia cells were washed from the peritoneal cavities of untreated mice, and baseline counts were made. Concomitantly, other groups of mice were treated i.p. with either ara-C.HCl or nitrara-C.HCl. Each drug was administered at a level of 720 mg/kg in a volume of 0.01 ml/gm of mouse weight. Twenty-four hours later, on day 6, cells were washed from the peritoneal cavities of both treated and NaCl-injected mice, and cell numbers were compared.\nFive days after the intraperitoneal inoculation of B6D2F1 /J mice with one hundred thousand cells of leukemia L1210, an average of 255 million cells were recovered from the abdominal compartments of untreated mice. Twenty-four hours later, this value had increased by 52 percent for NaCl-injected mice, but had declined by 90 percent for animals that received 720 mg/kg of nitrara-C and 77% for ara-C treated group."}, "RPMI-6410 (B-cells)": {"system": "RPMI-6410 (B-cells)", "experiment": "Cytotoxicity (cell growth inhibition), RPMI-6410", "format": "cell-based", "details": "Homo sapiens, read-out: IC50 (molar conc. for 50% inhib. of cell growth)"}, "CCRF-CEM (T-cells)": {"system": "CCRF-CEM (T-cells)", "experiment": "Cytotoxicity (cell growth inhibition), CCRF-CEM", "format": "cell-based", "details": "Homo sapiens, read-out: IC50 (molar conc. for 50% inhib. of cell growth)"}, "human leukemia cells": {"system": "human leukemia cells", "experiment": "Cytotoxicity to human leukemia cells in culture, summary", "experimental": "Experiments were also carried out to determine the growth potential of cultured human lymphoblasts in the presence of nitrara-C in tissue culture."}, "Cytidine deaminase": {"biological_target": "Cytidine deaminase (Mus musculus, UniProt P56389)", "sequence (P56389 whole entry)": "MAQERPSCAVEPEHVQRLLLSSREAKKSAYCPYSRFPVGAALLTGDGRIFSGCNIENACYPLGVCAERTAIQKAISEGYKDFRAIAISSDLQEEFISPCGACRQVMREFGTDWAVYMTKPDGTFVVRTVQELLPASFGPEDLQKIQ", "experiment": "Substrate specificity of cytidine deaminase (spectrophotometric deamination assay)", "format": "biochemical", "details": "for Relative initial rate of deamination: 2.5×10^-4 M substrate, 1.3 mg enzyme protein, pH 7.0, 37° C., cytidine = 100", "experimental": "Thus, mouse kidney acetone powder (3 g. obtained from Sigma Chemical Co., St. Louis, Mo.) was extracted at 55°-60° C. for 5 minutes with phosphate buffer (pH 8.0, 0.05M). The extract was filtered through four layers of guaze bandage, and the remaining colloidal materials were removed by centrifugation at 20,000 g. for 10 minutes. The supernatant was then filtered through a Nalgene filter unit (0.45 μm grid membrane) to give a clear yellowish filtrate that was adjusted to 40% saturation by the addition of solid ammonium sulfate (24 g/100 ml. of filtrate) with stirring at room temperature, and stirring was continued for 30 minutes. After removal of the precipitate by centrifugation (20,000 g. for 30 minutes), the active supernatant was adjusted to 70% saturation by further addition of ammonium sulfate (24 g/100 ml of supernatant). The resulting precipitate, recovered by centrifugation (20,000 g. for 30 minutes), was dissolved in 4 ml. of phosphate buffer (pH 7.0, 0.05M) and dialyzed twice against 2 liters of the same buffer.\nProtein content was determined by Bio-Rad Protein Assay. […] All reaction mixtures contained 2.5×10^-4 M of substrate and 1.3 mg of enzyme protein in a final volume of 1.0 ml. of phosphate buffer (pH 7.0, 0.05M)."}, "MOLT-4 (T-cells)": {"system": "MOLT-4 (T-cells)", "experiment": "Cytotoxicity (cell growth inhibition), MOLT-4", "format": "cell-based", "details": "Homo sapiens, read-out: IC50 (molar conc. for 50% inhib. of cell growth)"}, "[2]": {"system": "experimental tumors in animals", "details": "cited from earlier work"}, "L1210": {"system": "L1210", "experiment": "Life-span of mice inoculated i.p. with L1210 (3×10^6 cells), treatment started 24 h after implantation", "format": "in vivo, murine (B6D2F1/J female mice)", "details": "for indefinite cures (60 day survivors): 5 mice per group; for extension of lifespan: 2000 mg/kg", "experimental": "In a similar further study, B6D2F1 /J female mice were inoculated i.p. with 3×10^6 cells of L1210. Treatment was started 24 hours after tumor implantation. Nitrara-C hydrochloride treatment regimens were as follows:\nInjections of 0.9 percent saline were used as a control.\nOn regimen 1, statistically significant increase in life-span was obtained with dosages higher than 34 mg/kg."}, "[3]": {"details": "human leukemia cells in culture"}}, "note": "Like-named read-outs stand apart in the source and are kept apart here."}
{"smiles": "Nc1ccn([C@@H]2O[C@H](CO)[C@@H](O)[C@@H]2O[N+](=O)[O-])c(=O)n1", "note": "[Nitrara-C, 1-(2-O-nitro-β-D-arabinofuranosyl)cytosine]", "values": [{"measurement": "IC50", "setting": "CCFR-CEM/ara-C (mutant); CCFR-CEM/ara-C (mutant), deficient in deoxycytidine kinase, 48 hours", "value": 1000, "unit": "µM"}, {"measurement": "IC50", "setting": "CCRF-CEM cells; read-out: IC50 (molar conc. for 50% inhib. of cell growth), with cytidine deaminase", "value": 0.6, "unit": "µM"}, {"measurement": "IC50", "setting": "CCRF-CEM cells; read-out: IC50 (molar conc. for 50% inhib. of cell growth), without cytidine deaminase", "value": 0.6, "unit": "µM"}, {"measurement": "metabolised", "setting": "[1]", "value": "< 1", "unit": "%"}, {"measurement": "decline in number of L1210 cells recovered from abdominal compartment", "setting": "murine leukemia L1210", "value": 90, "unit": "%"}, {"measurement": "IC50", "setting": "RPMI-6410 (B-cells); RPMI-6410 (B-cells), 48 hours", "value": 6, "unit": "µM"}, {"measurement": "IC50", "setting": "CCRF-CEM (T-cells); CCRF-CEM (T-cells), 48 hours", "value": 0.6, "unit": "µM"}, {"measurement": "dependence of cytotoxicity on phosphorylation (in words)", "setting": "human leukemia cells", "value": "cytotoxicity depends on phosphorylation"}, {"measurement": "activity compared to ara-C (in words)", "setting": "human leukemia cells; [3]", "value": "compares favorably to that of ara-C"}, {"measurement": "cytotoxicity (in words)", "setting": "human leukemia cells; [3]", "value": "highly cytotoxic to various human leukemia cells in culture"}, {"measurement": "deamination by cytidine deaminase (in words)", "setting": "Cytidine deaminase", "value": "not deaminated by cytidine deaminase"}, {"measurement": "Relative initial rate of deamination", "setting": "Cytidine deaminase", "value": "< 1"}, {"measurement": "IC50", "setting": "MOLT-4 (T-cells); MOLT-4 (T-cells), 48 hours", "value": 0.4, "unit": "µM"}]}
{"smiles": "Nc1ccn([C@@H]2O[C@H](CO)[C@@H](O)[C@@H]2O)c(=O)n1", "note": "[Ara-C, 1-β-D-arabinofuranosylcytosine]", "values": [{"measurement": "IC50", "setting": "CCFR-CEM/ara-C (mutant); 48 h", "value": 100, "unit": "µM"}, {"measurement": "activity in experimental tumors (in words)", "setting": "[2]", "value": "active in several experimental tumors in animals"}, {"measurement": "decline in number of L1210 cells recovered from abdominal compartment", "setting": "murine leukemia L1210", "value": 77, "unit": "%"}, {"measurement": "IC50", "setting": "RPMI-6410 (B-cells); RPMI 6410, 48 h", "value": 0.06, "unit": "µM"}, {"measurement": "IC50", "setting": "CCRF-CEM (T-cells); CCRF-CEM, 48 h", "value": 0.02, "unit": "µM"}, {"measurement": "dependence of cytotoxicity on phosphorylation (in words)", "setting": "human leukemia cells", "value": "cytotoxicity depends on phosphorylation"}, {"measurement": "IC50", "setting": "MOLT-4 (T-cells); MOLT-4, 48 h", "value": 0.01, "unit": "µM"}]}
{"smiles": "Nc1ccn([C@H]2C[C@H](O)[C@@H](CO)O2)c(=O)n1", "note": "[2'-Deoxycytidine, reference compound]", "values": [{"measurement": "Relative initial rate of deamination", "setting": "Cytidine deaminase", "value": 39}]}
{"smiles": "Cl.Nc1ccn([C@@H]2O[C@H](CO)[C@@H](O)[C@@H]2O[N+](=O)[O-])c(=O)n1", "note": "[Nitrara-C hydrochloride, 1-(2-O-Nitro-β-D-arabinofuranosyl)cytosine hydrochloride]", "values": [{"measurement": "minimal effective dose", "setting": "L1210; Mus musculus, L1210, ip, 168 h, regimen 1 (daily for 7 days), read-out: dosages giving statistically significant increase in life-span", "value": "> 34", "unit": "mg/kg"}, {"measurement": "toxic deaths", "setting": "L1210; any of the above regimens at the highest dosages", "value": "Toxic deaths were not seen"}, {"measurement": "extension of life-span", "setting": "L1210; regimen 1 (daily for 7 days), 208 mg/kg", "value": 162, "unit": "%"}, {"measurement": "indefinite cures (60 day survivors)", "setting": "L1210; regimen 1 (daily for 7 days), 259 mg/kg", "value": 3, "unit": "survivors"}, {"measurement": "indefinite cures (60 day survivors)", "setting": "L1210; regimen 1 (daily for 7 days), 346 mg/kg", "value": 1, "unit": "survivor"}, {"measurement": "indefinite cures (60 day survivors)", "setting": "L1210; regimen 1 (daily for 7 days), 432 mg/kg", "value": 2, "unit": "survivors"}, {"measurement": "indefinite cures (60 day survivors)", "setting": "L1210; regimen 1 (daily for 7 days), 720 mg/kg", "value": 1, "unit": "survivor"}, {"measurement": "extension of lifespan", "setting": "L1210; regimen 2 (day 1 only)", "value": 57, "unit": "%"}, {"measurement": "extension of lifespan", "setting": "L1210; regimen 3 (days 1 and 4 only)", "value": 120, "unit": "%"}, {"measurement": "extension of lifespan", "setting": "L1210; regimen 4 (days 1, 4 and 7)", "value": 197, "unit": "%"}]}
